From patent US20080194630A1, “LTA4H modulators and uses thereof” (priority 2007, published 2008)

How the values were obtained:
[1] = tested on: LTB4 production in murine whole blood (LTA4H); experiment: LTB4 production by calcium ionophore-stimulated murine blood for LTA4H inhibitor activity; assay type: cell-based, CD-1 mice; conditions: CD-1 mouse blood diluted 1:15, calcium ionophore A23187 20 ng/mL, LTB4 by enzyme-linked immunoassay
[2] = tested on: ex vivo stimulated LTB4 production; experiment: Murine arachidonic acid-induced inflammation model: ex vivo stimulated LTB4 production in blood; parameters: species or system female Balb/c mice; conditions: 30 mg/kg oral gavage, blood taken 3 h after arachidonic acid, ex vivo A23187 stimulation, vs animals without inhibitor
Procedure: Murine arachidonic acid-induced inflammation model
LTA4H inhibitor compounds of the present invention were dissolved in 20% cyclodextran/H2O at a concentration of 3 mg/mL. The solutions were administered by oral gavage to female Balb/c mice weighing approximately 20 grams each (0.2 mL per mouse, 30 mg of LTA4H inhibitor compound per kg). Sixty minutes after being administered an LTA4 inhibitor, each mouse received topical application of 20 μL of arachidonic acid (100 mg/mL in acetone) to the left ear and 20 μL of acetone only to the right ear. After 3 h, the mice were sacrificed, blood was withdrawn in heparinized syringes, and 8 mm ear biopsies were taken. […]
One hundred-microliter aliquots of heparinized blood were added to wells of a microtiter plate, along with equal volumes of RPMI-1640 medium, and calcium ionophore A23187 was added to each sample well (final concentration=20 ng/μL). […] Supernatants were analyzed for LTB4 by a commercially available enzyme-linked immunoassay (Cayman Chemical Co.) in accordance with the manufacturer's instructions. The percent inhibition of ex vivo stimulated LTB4 production (% Inh. LTB4) was determined by comparison to animals treated identically except that the solution admininstered by oral gavage was devoid of inhibitor compound.

[3] = tested on: neutrophil influx (myeloperoxidase, MPO); experiment: Murine arachidonic acid-induced inflammation model: neutrophil influx in ear (myeloperoxidase activity); assay type: in vivo, female Balb/c mice; conditions: Mus musculus, 30 mg/kg oral gavage 60 min before topical arachidonic acid, ear biopsy after 3 h, vs animals without inhibitor
Procedure: Murine arachidonic acid-induced inflammation model LTA4H inhibitor compounds of the present invention were dissolved in 20% cyclodextran/H2O at a concentration of 3 mg/mL. The solutions were administered by oral gavage to female Balb/c mice weighing approximately 20 grams each (0.2 mL per mouse, 30 mg of LTA4H inhibitor compound per kg). Sixty minutes after being administered an LTA4 inhibitor, each mouse received topical application of 20 μL of arachidonic acid (100 mg/mL in acetone) to the left ear and 20 μL of acetone only to the right ear. After 3 h, the mice were sacrificed, blood was withdrawn in heparinized syringes, and 8 mm ear biopsies were taken. Ear biopsies were weighed to determine edema and then frozen at -80° C. until needed for determination of neutrophil influx. Neutrophil influx was quantified by measuring the activity of myeloperoxidase (MPO), a neutrophil-specific enzyme. […] Debris was removed by centrifugation at 14000×g for 10 min. […] The microtiter plate contents were held at room temperature for 1 h. […] H2SO4 to each sample well, and the myeloperoxidase activity in each sample was determined from the absorbance at 405 nm. […] The percent inhibition of neutrophil influx (% Inh. MPO) by compounds of the invention was determined by comparison to animals treated identically, except that the solution administered by oral gavage was devoid of inhibitor compound.

[4] = tested on: ionophore-induced LTB4 production; conditions: oral administration; cited from earlier work
[5] = tested on: ionophore-induced LTB4 production; conditions: oral administration; cited from earlier work; remark: listed apart in the source
atopic dermatitis = conditions: small open-label trial in AD; cited from earlier work
pruritus = conditions: human, in vivo; cited from earlier work

CC(C)N(CCC(=O)O)CCc1ccc(Oc2nc3ccccc3s2)cc1 [Example 180, 3-({2-[4-(Benzothiazol-2-yloxy)-phenyl]-ethyl}-isopropyl-amino)-propionic acid]
IC50 [1]: 0.015 µM
inhibition at 30 mg/kg ([2]; Mus musculus, read-out: % Inh. LTB4): 87%
inhibition at 30 mg/kg [3]: 87%

O=C(O)C1CCN(Cc2ccc(Oc3nc4ccccc4s3)cc2)CC1 [Example 250, 1-[4-(Benzothiazol-2-yloxy)-benzyl]-piperidine-4-carboxylic acid]
% Inh. LTB4 [2]: 80%

CN(CCCOc1ccc(Cc2ccccc2)cc1)CCC(=O)O.Cl [SC57461]
ionophore-induced LTB4 production in mouse blood ex vivo [4]: caused inhibition
ionophore-induced LTB4 production in rat peritoneum in vivo [5]: caused inhibition

CC(c1cc2ccccc2s1)N(O)C(N)=O (centres unmarked) [zileuton]
effects in atopic dermatitis (atopic dermatitis): beneficial effects
pruritus in Sjögren-Larsson syndrome patients (pruritus): relieving the pruritus
